{"source": "patent US20210290648A1", "about": "“Potentiation of B-Lactam Antibiotics and B-Lactam/B-Lactamase Inhibitor Combinations Against Multidrug and Extensively Drug-Resistant Pseudomonas Aeruginosa Using Non-Ribosomal Tobramycin-Cyclam Conjugates” (University of Manitoba, priority 2018, published 2021)", "key": {"E. coli ATCC 25922": {"system": "E. coli ATCC 25922", "assay": "MIC, microbroth dilution", "format": "cell-based", "settings": "standalone", "method": "(§1) Antimicrobial Susceptibility Assay. The in vitro antimicrobial activity of all compounds/antibiotics against a panel of bacteria was evaluated by microbroth dilution method in accordance with the Clinical and Laboratory Standards Institute (CLSI) guidelines. Overnight grown bacterial cultures were diluted in saline to achieve a 0.5 McFarland turbidity, followed by 1:50 dilution in Mueller-Hinton broth (MHB) for inoculation to a final concentration of approximately 5×10^5CFU/mL. The antimicrobial agents were 2-fold serially diluted in MHB in a 96-well plate and incubated at 37° C. with equal volumes of inoculum for 18 h. The lowest concentration that prevented the visible growth of bacteria was defined as the MIC for each antimicrobial agent. The broth with or without bacterial cells was used as positive or negative control, respectively."}, "[1]": {"system": "β-lactamase-harboring MDR P. aeruginosa clinical isolates", "assay": "Triple combination susceptibility (β-lactam + avibactam + compound 2)", "format": "cell-based, Pseudomonas aeruginosa", "text": "The diazabicyclooctane β-lactamase inhibitor, avibactam, is able to inhibit a wide range of serine β-lactamases (class A, C, and D) but not metallo-β-lactamases (class B) (50, 51).^50,51 However, the high concentration of avibactam required to neutralize the effects of β-lactamase enzymes in these phenotypes is indicative of concomitant permeability barriers in the isolates, such as reduced porin uptake. […] The results of this study are shown in (FIG. 6). All isolates were resistant to all three β-lactam antibiotics used for the study. […] As expected, the study with meropenem was slightly different from others.\nas §1\nCheckerboard Assay. Combination studies with different antibiotics were performed in 96-well plates as previously described (22). Briefly, the antibiotic of interest was serially diluted in MHB along the abscissa while the adjuvant (newly synthesized conjugates) was serially diluted in MHB along the ordinate. This creates a 10×7 matrix wherein each well consists of a combination of different antibiotic and adjuvant concentrations. Overnight grown bacterial cultures were diluted in saline to achieve a 0.5 McFarland turbidity, followed by 1:50 dilution in Mueller-Hinton broth (MHB) for inoculation to a final concentration of approximately 5×10^5CFU/mL. Equal volume of this bacterial culture was then added to each well and incubated at 37° C. for 18 h. After incubation, the plates were read on EMax® Plus microplate reader (Molecular Devices, Sunnyvale, Calif., USA) at 590 nm. MIC was recorded as wells with the lowest concentration of drugs with no bacterial growth. The fractional inhibitory concentration (FIC) for each antibiotic was calculated by dividing the MIC of the antibiotic in the presence of adjuvant by the MIC of the antibiotic alone. Similarly, the FIC of adjuvant was calculated by dividing the MIC of the adjuvant in the presence of antibiotic by the MIC of the adjuvant alone. FIC index is the sum of both FICs. FIC indices of <0.5 were deemed synergistic; 0.5-4, no interaction; and >4, antagonistic."}, "[2]": {"settings": "humans; cited from earlier work"}}}
{"compound": "5-O-(Octylcyclam)-tobramycin.9TFA [Compound 2]", "values": [{"measurement": "MIC", "setting": "E. coli ATCC 25922", "value": 64, "unit": "µg/mL"}, {"measurement": "effect on activity of ceftolozane-tazobactam combinations", "setting": "[1]; all β-lactamase-harboring isolates tested", "value": "did not improve the activity"}, {"measurement": "isolates below aztreonam susceptible breakpoint", "setting": "[1]; aztreonam + avibactam + compound 2, 8 μM each", "value": "all five isolates"}, {"measurement": "isolates reaching aztreonam susceptibility breakpoint (≤8 μg/ml)", "setting": "[1]; aztreonam + single adjuvant 8 μM", "value": "two out of five"}, {"measurement": "isolates below ceftazidime susceptible breakpoint", "setting": "[1]; ceftazidime + avibactam + compound 2, 8 μM each", "value": "all isolates"}, {"measurement": "isolates reaching ceftazidime susceptibility breakpoint (≤8 μg/ml)", "setting": "[1]; ceftazidime + single adjuvant 8 μM", "value": "one of five"}, {"measurement": "isolates reaching meropenem susceptible levels", "setting": "[1]; meropenem + avibactam + compound 2, 8 μM each", "value": "three out of five"}, {"measurement": "isolates reaching meropenem susceptibility level", "setting": "[1]; meropenem + single adjuvant 8 μM", "value": "zero of five"}, {"measurement": "potentiation of ceftazidime", "setting": "[1]; single adjuvant at 8 μM, five isolates", "value": 4, "unit": "fold"}]}
{"compound": "C[C@@H](O)[C@H]1C(=O)N2C(C(=O)O)=C(S[C@@H]3CN[C@H](C(=O)N(C)C)C3)[C@H](C)[C@H]12", "note": "[Meropenem]", "values": [{"measurement": "achievable plasma concentration", "setting": "[2]", "value": "> 8", "unit": "µg/mL"}]}
